Laboratory results published in PubChem BioAssay AID330 (DTP/NCI, 2004).
“And” between values parts separate entries of the source, which are not always exact repeats. Equal entries are not always repeated. Inconclusive results and toxic doses are left out.

Tested on: P388 leukemia ip, CD2F1 mice, survival T/C
Experiment: NCI In Vivo Anticancer Drug Screen. Data for tumor model P388 Leukemia (intraperitoneal) in CD2F1 (CDF1) mice
Settings: endpoint: median survival time, higher = longer survival
In short: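 Mice carrying the transplanted tumor received test compound or vehicle. Survival was recorded in each group, and the value is the treated-group measurement divided by that of the vehicle-treated control group.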

[1] = dose: 60.0 mg/kg/injection, schedule: Q01DX005 (ip), vehicle: Klucel (hydroxypropylcellulose) (HPC)
[2] = dose: 120.0 mg/kg/injection, schedule: Q01DX005 (ip), vehicle: Klucel (hydroxypropylcellulose) (HPC)
[3] = dose: 240.0 mg/kg/injection, schedule: Q01DX005 (ip), vehicle: Klucel (hydroxypropylcellulose) (HPC)
[4] = dose: 50.0 mg/kg/injection, schedule: Q01DX005 (ip), vehicle: Klucel (hydroxypropylcellulose) (HPC)
[5] = dose: 100.0 mg/kg/injection, schedule: Q01DX005 (ip), vehicle: Klucel (hydroxypropylcellulose) (HPC)
[6] = dose: 200.0 mg/kg/injection, schedule: Q01DX005 (ip), vehicle: Klucel (hydroxypropylcellulose) (HPC)
[7] = dose: 50.0 mg/kg/injection, schedule: Q01DX009 (ip), vehicle: saline
[8] = dose: 100.0 mg/kg/injection, schedule: Q01DX009 (ip), vehicle: saline
[9] = dose: 200.0 mg/kg/injection, schedule: Q01DX009 (ip), vehicle: saline
[10] = dose: 400.0 mg/kg/injection, schedule: Q01DX009 (ip), vehicle: saline
[11] = dose: 5.0 mg/kg/injection, schedule: Q01DX009 (ip), vehicle: Klucel (hydroxypropylcellulose) (HPC)
[12] = dose: 10.0 mg/kg/injection, schedule: Q01DX009 (ip), vehicle: Klucel (hydroxypropylcellulose) (HPC)

COC(=O)c1ccc(O)cc1C1(Cl)CC1
T/C [1]: 108 % of control
T/C [2]: 102 % of control
T/C [3]: 100 % of control

CCC1CCCCN1Cc1ccccc1 (centres undefined)
T/C [1]: 108 % of control
T/C [2]: 110 % of control

Cc1ccccc1C1OC2=C(Nc3ccc([N+](=O)[O-])cc3N2)C1=O (centres undefined)
T/C [1]: 88 % of control
T/C [2]: 90 % of control
T/C [3]: 101 % of control

CCN(CC)c1ccc(C=C2C(=O)NC(=S)NC2=O)cc1
T/C (dose: 25.0 mg/kg/injection, schedule: Q01DX005 (ip), vehicle: Klucel (hydroxypropylcellulose) (HPC)): 101 % of control
T/C [4]: 100 % of control
T/C [5]: 101 % of control
T/C [6]: 100 % of control

O=C1OC(C(O)CO)C(O)=C1OC[N+]1(CCCl)CCN(CCCl)CC1 (centres undefined)
T/C [7]: 100 % of control and 110 % of control
T/C [8]: 108 % of control and 116 % of control
T/C [9]: 123 % of control
T/C [10]: 157 % of control

CC1(CCl)CC(=O)N1C(N)=O (centres undefined)
T/C [7]: 96 % of control
T/C [8]: 104 % of control
T/C [9]: 105 % of control

Cc1cn(C2CC(F)C(CO)O2)c(=O)[nH]c1=O (centres undefined)
T/C (dose: 12.5 mg/kg/injection, schedule: Q01DX009 (ip), vehicle: saline): 106 % of control
T/C (dose: 25.0 mg/kg/injection, schedule: Q01DX009 (ip), vehicle: saline): 101 % of control and 103 % of control
T/C [7]: 100 % of control and 110 % of control
T/C [8]: 101 % of control and 119 % of control
T/C [9]: 101 % of control
T/C [10]: 116 % of control

NNC(=O)CCCCl
T/C (dose: 60.0 mg/kg/injection, schedule: Q01DX005 (ip), vehicle: saline): 111 % of control
T/C (dose: 120.0 mg/kg/injection, schedule: Q01DX005 (ip), vehicle: saline): 110 % of control

CCOCCOC(=O)c1nc2c(N)nc(-c3ccccc3)nc2nc1N
T/C (dose: 15.0 mg/kg/injection, schedule: Q01DX009 (ip), vehicle: saline with Tween-80): 98 % of control
T/C (dose: 30.0 mg/kg/injection, schedule: Q01DX009 (ip), vehicle: saline with Tween-80): 98 % of control
T/C (dose: 60.0 mg/kg/injection, schedule: Q01DX009 (ip), vehicle: saline with Tween-80): 91 % of control

C=C1CC2(CCC23CC(=C)C(=O)O3)OC1=O (centres undefined)
T/C [11]: 100 % of control
T/C [12]: 116 % of control
T/C (dose: 20.0 mg/kg/injection, schedule: Q01DX009 (ip), vehicle: Klucel (hydroxypropylcellulose) (HPC)): 117 % of control

CC(Cc1cccc2ccccc12)C(N)=O (centres undefined)
T/C [4]: 100 % of control
T/C [5]: 99 % of control
T/C [6]: 99 % of control

COC(=O)CC1(C(=O)OC)c2sc(-c3ccccc3OC)cc2N2CCCC21 (centres undefined)
T/C (dose: 0.63 mg/kg/injection, schedule: Q01DX009 (ip), vehicle: Klucel (hydroxypropylcellulose) (HPC)): 106 % of control
T/C (dose: 1.25 mg/kg/injection, schedule: Q01DX009 (ip), vehicle: Klucel (hydroxypropylcellulose) (HPC)): 102 % of control
T/C (dose: 2.5 mg/kg/injection, schedule: Q01DX009 (ip), vehicle: Klucel (hydroxypropylcellulose) (HPC)): 102 % of control
T/C [11]: 100 % of control
T/C [12]: 105 % of control

Cc1nc2c(Cl)cccc2c2ccccc12
T/C [4]: 88 % of control
T/C [5]: 92 % of control
T/C [6]: 88 % of control

COc1cccc2c1C(=O)c1c(O)c3c(c(O)c1C2=O)C[C@@](O)(/C(C)=N/NC(=O)c1cccs1)C[C@@H]3OC1CC(N)C(O)C(C)O1 (some centres undefined)
T/C (dose: 1.56 mg/kg/injection, schedule: Q04DX003 (ip), vehicle: saline): 169 % of control
T/C (dose: 3.13 mg/kg/injection, schedule: Q04DX003 (ip), vehicle: saline): 178 % of control
T/C (dose: 6.25 mg/kg/injection, schedule: Q04DX003 (ip), vehicle: saline): 191 % of control
T/C (dose: 12.5 mg/kg/injection, schedule: Q04DX003 (ip), vehicle: saline): 206 % of control
T/C (dose: 25.0 mg/kg/injection, schedule: Q04DX003 (ip), vehicle: saline): 104 % of control
